{"source": "patent US9132108B2", "about": "“Pharmaceutical composition for ameliorating and/or preventing leptin resistance, and use thereof” (HIROSHIMA UNIVERSITY, priority 2009, dated 2015)", "type_in_all_cases": "in vivo, mouse", "key": {"[1]": {"test_system": "STAT3 phosphorylation in hypothalami", "assay": "Western blotting of STAT3 phosphorylation in hypothalami 30 min after leptin injection (Example 2)", "details": "Group 4 (high-fat diet+flurbiprofen) vs Group 2; approximately 10 mg/kg per day orally, 8 weeks; 30 minutes after leptin 1 mg/kg via tail vein; significance level <1%", "procedure": "4 weeks-old male mice (C57BL/6 Cr Slc) had been given normal diet (10 kcal % fat, D12450B, produced by Research Diets, Inc.) or high-fat diet (60 kcal % fat, D12492, produced by Research Diets, Inc.). Flurbiprofen was diluted with drinking water so that the administration amount of flurbiprofen would be approximately 10 mg/kg per day, and was orally administered to the mice in the form of drinking water.\nSpecifically, mice were divided into four groups each consisting of 7-8 mice. Mice of individual groups were given diets as follows. • Group 1: Normal diet (10 kcal % fat) only • Group 2: High-fat diet (60 kcal % fat) only • Group 3: Normal diet+flurbiprofen • Group 4: High-fat diet+flurbiprofen\nA solution prepared by solving mouse-derived leptin (450-31, produced by PeproTech Inc. or 498-OB, rmLeptin, produced by R&D systems) in physiological saline was non-orally administered via tail vein to the mice, which had been given high-fat diet or normal diet for 8 weeks. The non-oral administration was done in such a manner that the administration amount of leptin would be 1 mg/kg. As a control for leptin administration, physiological saline in equal amount was administered to the mice via tail vein.\nFIGS. 4 and 5 show the result of Western blotting of STAT3 phosphorylation in hypothalami of mice 30 minutes after leptin injection. […]"}, "mice": {"test_system": "mice", "assay": "Open Field Test, amounts of mice activity (Example 6)", "details": "Group 3 or 4 (flurbiprofen) vs Group 1 or 2 (no flurbiprofen); 10 mg/kg per day orally, 8 weeks", "procedure": "In order to measure the amounts of mice activity, an Open Field Test was carried out. Specifically, 4 weeks-old male mice (C57BL/6 Cr Slc) were divided into four groups each consisting of 15-16 mice. Mice of individual groups were given diets as follows for 8 weeks similarly with Example 5. • Group 1: Normal diet (10 kcal % fat) only • Group 2: High-fat diet (60 kcal % fat) only • Group 3: Normal diet+flurbiprofen • Group 4: High-fat diet+flurbiprofen\nFlurbiprofen (F8514, produced by SIGMA) was diluted with drinking water so that the administration amount of flurbiprofen would be 10 mg/kg per day, and was orally administered to the mice in the form of drinking water.\nThe mice raised for 8 weeks with high-fat diet or normal diet were subjected to the Open Field Test.\nThe Open Field Test is a test in which mice were put at the center of a square field (48×48 cm) and the amounts of activity of the mice in the new environment were measured in numerals. Specifically, with respect to each of the mice, the amount of activity per 5 minutes was measured using a locomotor activity measuring device (SCANET MV-10MT, produced by Toyo Sangyo Co., Ltd.). The measurements were performed between 16:30 and 17:30 which was a time before feeding behavior of the mice would become active. […]"}, "[2]": {"test_system": "mice given high-fat diet (leptin resistance)", "assay": "Body weight of mice given high-fat or normal diet with flurbiprofen for 8 weeks (Example 1)", "details": "approximately 10 mg/kg per day orally in drinking water", "procedure": "In the Examples, 4 weeks-old male mice (C57BL/6 Cr Slc, SHIMIZU Laboratory Supplies Co., Ltd.) were used as laboratory animals. All the animal tests in the Examples were carried out according to the NIH Guide for Care and Use of Laboratory Animals.\nMice were divided into four groups each consisting of 7-8 mice. Mice of individual groups were given diets as follows. • Group 1: Normal diet (10 kcal % fat, D12450B, produced by Research Diets, Inc.) only • Group 2: High-fat diet (60 kcal % fat, D12492, produced by Research Diets, Inc.) only • Group 3: Normal diet+flurbiprofen (F8514, produced by SIGMA) • Group 4: High-fat diet+flurbiprofen (F8514, produced by SIGMA)\nFlurbiprofen was diluted with drinking water so that the administration amount of flurbiprofen would be approximately 10 mg/kg per day, and was orally administered to the mice in the form of drinking water. Thereafter, the mice were weighed every 7 days.\nFIG. 3 is a graph showing changes in body weights of the mice of individual groups during 8 weeks after flurbiprofen administration. Values in the graph of FIG. 3 are averages of body weights of mice of each group (± their standard deviations) (n=7-8 with respect to each group). Further, statistic analysis was carried out using t-test."}, "[3]": {"test_system": "circulating leptin levels", "assay": "Circulating leptin levels of leptin-resistant mice (Example 9)", "details": "3 weeks after flurbiprofen administration, 3 mg/kg per day orally; control 106.51±3.7122; P<0.05", "procedure": "Similarly with Example 8, 4 weeks-old male mice (C57BL/6 Cr Slc) had been given high-fat diet for 6 months so that leptin resistance would be induced in the mice. Thereafter, the mice were divided into two groups (each consisting of 8 mice), and the mice of individual groups were given the following diets for 3 weeks. • Control group (Cont): normal diet (10 kcal % fat) only • Flurbiprofen-administered group (Ful): normal diet+flurbiprofen Flurbiprofen (F8514, produced by SIGMA) was diluted with drinking water so that the administration amount of flurbiprofen would be 3 mg/kg per day, and was orally administered to the mice in the form of drinking water. […] FIG. 15 is a graph showing circulating leptin levels (ng/ml) of the mice of the control group and the mice of the flurbiprofen-administered group which had been given normal diet for 3 weeks. Values in the graph of FIG. 15 are averages of circulating leptin levels (ng/ml) of mice of each group (± their standard deviations) (n=8 with respect to each group). Further, statistic analysis was carried out using t-test."}}}
{"compound": "C[C@@H](C(=O)O)c1ccc(-c2ccccc2)c(F)c1", "note": "[flurbiprofen]", "values": [{"measurement": "intensity of STAT3 phosphorylation in hypothalami", "setting": "[1]", "result": "significantly higher"}, {"measurement": "amounts of activity (locomotor activity, counts/5 min)", "setting": "mice", "result": "no significant difference in the amounts of activity"}, {"measurement": "body weight", "setting": "[2]; Group 3 (normal diet+flurbiprofen) vs Group 1 (normal diet only)", "result": "no significant difference in body weight"}, {"measurement": "body weight", "setting": "[2]; Group 4 (high-fat diet+flurbiprofen) vs Group 2 (high-fat diet only), significance level <5%", "result": "prevented an increase in body weight"}, {"measurement": "circulating leptin level", "setting": "[3]", "result": "87.105 ± 5.4415", "unit": "ng/mL"}]}
